Measured values from patent US20100298141A1, “SUBSTITUTED PYRIDINE N-OXIDE HERBICIDES” (E. I. DU PONT DE NEMOURS AND COMPANY, priority 2007, published 2010).

Assays:
large crabgrass = experiment: Test F preemergence test; format: in vivo, Digitaria sanguinalis; details: scale 0 to 100
Procedure, shortened: (§1)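 Test chemicals were formulated in a non-phytotoxic solvent mixture with surfactant and applied preemergence to planted seeds or postemergence to sugarcane plants. Plants were kept in a greenhouse for 14 to 21 days, then visually evaluated against controls.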

purple nutsedge = experiment: Test F preemergence test; format: in vivo, Cyperus rotundus; details: scale 0 to 100
Procedure, shortened: as §1

johnsongrass = experiment: Test F preemergence test; format: in vivo, Sorghum halepense; details: scale 0 to 100
Procedure, shortened: as §1

Virginia dayflower = experiment: Test F preemergence test; format: in vivo, Commelina virginica; details: scale 0 to 100
Procedure, shortened: as §1

Italian ryegrass = experiment: Test F preemergence test; format: in vivo, Lolium multiflorum; details: scale 0 to 100; for Ryegrass, Italian plant response rating: 125 g ai/ha
Procedure, shortened: as §1

goosegrass = experiment: Test F preemergence test; format: in vivo, Eleusine indica; details: scale 0 to 100
Procedure, shortened: as §1

common ragweed = experiment: Test F preemergence test; format: in vivo, Ambrosia elation; details: scale 0 to 100; for Ragweed plant response rating: 125 g ai/ha
Procedure, shortened: as §1

Surinam grass = experiment: Test F preemergence test; format: in vivo, Brachiaria decumbens; details: scale 0 to 100; for Surinam Grass plant response rating: 125 g ai/ha
Procedure, shortened: as §1

pitted morningglory = experiment: Test F preemergence test; format: in vivo, Ipomoea lacunosa; details: scale 0 to 100
Procedure, shortened: as §1

broadleaf signalgrass = experiment: Test F preemergence test; format: in vivo, Brachiaria platyphylla; details: scale 0 to 100; for Signalgrass plant response rating: 125 g ai/ha
Procedure, shortened: as §1

bermudagrass = experiment: Test F preemergence test; format: in vivo, Cynodon dactylon; details: scale 0 to 100
Procedure, shortened: as §1

morningglory = experiment: Test C pre-/postemergence test; format: in vivo, Ipomoea coccinea
Procedure, shortened: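 Test chemicals were formulated with surfactant in a non-phytotoxic solvent and sprayed both on freshly planted seeds (preemergence) and on 1- to 4-leaf plants of 2–18 cm (postemergence). Flooded-paddy pots received compound directly into 3 cm of standing water, maintained for the test.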

naked crabgrass = experiment: Test F preemergence test; format: in vivo, Digitaria nuda; details: scale 0 to 100
Procedure, shortened: as §1

rice = experiment: Test C flooded paddy test; format: in vivo, Oryza sativa; details: Flood
Procedure, shortened: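 Compound was added to standing water 3 cm above soil, flood maintained, and plants held in a greenhouse before visual scoring against controls at 13 to 15 days.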

kochia = experiment: Test F preemergence test; format: in vivo, Kochia scoparia; details: scale 0 to 100
Procedure, shortened: as §1

annual bluegrass = experiment: Test F preemergence test; format: in vivo, Poa annua; details: scale 0 to 100
Procedure, shortened: as §1

[1] = 62 g ai/ha, Preemergence, scale 0 to 100
[2] = Preemergence, 31 g ai/ha, scale 0 to 100 (0 no effect, 100 complete control)
[3] = 250 g ai/ha, scale 0 to 100, 0 no effect, 100 complete control, 13 to 15 days

Cn1nc(C(F)(F)F)c(C[S+]([O-])c2ccc(Cl)c[n+]2[O-])c1OCC(F)(F)F (racemic) [Compound 62]
Plant response rating, Crabgrass, Large (large crabgrass; 16 g ai/ha, preemergence): 15
Crabgrass, Large plant response rating (large crabgrass; 62 g ai/ha, Preemergence): 90
Crabgrass, Large plant response rating (large crabgrass; 125 g ai/ha, preemergence): 98
Plant response rating, Crabgrass, Large (large crabgrass; Preemergence, 31 g ai/ha): 60
Plant response rating, Purple Nutsedge (purple nutsedge; 16 g ai/ha, preemergence): 0
Purple Nutsedge plant response rating (purple nutsedge; 62 g ai/ha, Preemergence): 65
Purple Nutsedge plant response rating (purple nutsedge; 125 g ai/ha, preemergence): 75
Plant response rating, Purple Nutsedge (purple nutsedge; Preemergence, 31 g ai/ha): 35
Plant response rating, Johnsongrass (johnsongrass; 16 g ai/ha, preemergence): 20
Johnsongrass plant response rating (johnsongrass; 62 g ai/ha, Preemergence): 100
Johnsongrass plant response rating (johnsongrass; 125 g ai/ha, preemergence): 100
Plant response rating, Johnsongrass (johnsongrass; Preemergence, 31 g ai/ha): 80
Plant response rating, Dayflower (Virginia dayflower; 16 g ai/ha, preemergence): 0
Plant response rating, Ryegrass, Italian (Italian ryegrass; 16 g ai/ha, preemergence): 50
Ryegrass, Italian plant response rating (Italian ryegrass; preemergence): 100
Plant response rating, Ryegrass, Italian (Italian ryegrass; Preemergence, 62 g ai/ha): 100
Plant response rating, Ryegrass, Italian (Italian ryegrass; Preemergence, 31 g ai/ha): 98
Plant response rating, Goosegrass (goosegrass; 16 g ai/ha, preemergence): 50
Goosegrass plant response rating (goosegrass; 62 g ai/ha, Preemergence): 98
Goosegrass plant response rating (goosegrass; 125 g ai/ha, preemergence): 100
Plant response rating, Goosegrass (goosegrass; Preemergence, 31 g ai/ha): 65
Plant response rating, Ragweed (common ragweed; 16 g ai/ha, preemergence): 60
Ragweed plant response rating (common ragweed; preemergence): 80
Plant response rating, Ragweed (common ragweed; Preemergence, 62 g ai/ha): 70
Plant response rating, Ragweed (common ragweed; Preemergence, 31 g ai/ha): 60
Plant response rating, Surinam Grass (Surinam grass; 16 g ai/ha, preemergence): 60
Surinam Grass plant response rating (Surinam grass; preemergence): 100
Plant response rating, Surinam Grass (Surinam grass; Preemergence, 62 g ai/ha): 100
Plant response rating, Surinam Grass (Surinam grass; Preemergence, 31 g ai/ha): 95
Plant response rating, Morningglory (pitted morningglory; 16 g ai/ha, preemergence): 0
Morningglory plant response rating (pitted morningglory; 62 g ai/ha, Preemergence): 75
Morningglory plant response rating (pitted morningglory; 125 g ai/ha, preemergence): 100
Plant response rating, Morningglory (pitted morningglory; Preemergence, 31 g ai/ha): 75
Plant response rating, Signalgrass (broadleaf signalgrass; 16 g ai/ha, preemergence): 40
Signalgrass plant response rating (broadleaf signalgrass; preemergence): 95
Plant response rating, Signalgrass (broadleaf signalgrass; Preemergence, 62 g ai/ha): 75
Plant response rating, Signalgrass (broadleaf signalgrass; Preemergence, 31 g ai/ha): 40
Plant response rating, Bermudagrass (bermudagrass; 16 g ai/ha, preemergence): 20
Bermudagrass plant response rating (bermudagrass; 62 g ai/ha, Preemergence): 75
Bermudagrass plant response rating (bermudagrass; 125 g ai/ha, preemergence): 100
Plant response rating, Bermudagrass (bermudagrass; Preemergence, 31 g ai/ha): 20
Morningglory plant response rating (morningglory; [1]): 90
Morningglory plant response rating (morningglory; 125 g ai/ha, preemergence, scale 0 (no effect) to 100 (complete control)): 100
Plant response rating (0 to 100), Morningglory (morningglory; Postemergence, 31 g ai/ha): 0
Plant response rating, Morningglory (morningglory; Postemergence, 62 g ai/ha, scale 0 to 100, 0 no effect, 100 complete control): 0
Plant response rating, Morningglory (morningglory; Postemergence, 125 g ai/ha, scale 0 to 100, 0 no effect, 100 complete control): 0
Plant response rating, Morningglory (morningglory; Postemergence, 250 g ai/ha, scale 0 to 100, 0 no effect, 100 complete control): 30
Plant response rating, Morningglory (morningglory; [2]): 50
Morningglory plant response rating (morningglory; preemergence, 250 g ai/ha, scale 0 (no effect) to 100 (complete control)): 100
Plant response rating, Crabgrass, Naked (naked crabgrass; 16 g ai/ha, preemergence): 90
Crabgrass, Naked plant response rating (naked crabgrass; 62 g ai/ha, Preemergence): 100
Crabgrass, Naked plant response rating (naked crabgrass; 125 g ai/ha, preemergence): 100
Plant response rating, Crabgrass, Naked (naked crabgrass; Preemergence, 31 g ai/ha): 90
Plant response rating, Rice (rice; 62 g ai/ha, scale 0 to 100 (0 no effect, 100 complete control)): 60
Plant response rating, Rice (rice; [3]): 90
Plant response rating, Kochia (kochia; 16 g ai/ha, preemergence): 0
Kochia plant response rating (kochia; 62 g ai/ha, Preemergence): 15
Kochia plant response rating (kochia; 125 g ai/ha, preemergence): 100
Plant response rating, Kochia (kochia; Preemergence, 31 g ai/ha): 0
Plant response rating, Bluegrass (annual bluegrass; 16 g ai/ha, preemergence): 20
Bluegrass plant response rating (annual bluegrass; 62 g ai/ha, Preemergence): 80
Bluegrass plant response rating (annual bluegrass; 125 g ai/ha, preemergence): 100
Plant response rating, Bluegrass (annual bluegrass; Preemergence, 31 g ai/ha): 70

CC(c1c(C(F)(F)F)nn(C)c1OCC(F)(F)F)S(=O)(=O)c1cccc[n+]1[O-] (racemic) [Compound 33]
Plant response rating, Crabgrass, Large (large crabgrass; 16 g ai/ha, preemergence): 15
Crabgrass, Large plant response rating (large crabgrass; 62 g ai/ha, Preemergence): 85
Crabgrass, Large plant response rating (large crabgrass; 125 g ai/ha, preemergence): 100
Plant response rating, Crabgrass, Large (large crabgrass; Preemergence, 31 g ai/ha): 35
Plant response rating, Purple Nutsedge (purple nutsedge; 16 g ai/ha, preemergence): 0
Purple Nutsedge plant response rating (purple nutsedge; 62 g ai/ha, Preemergence): 85
Purple Nutsedge plant response rating (purple nutsedge; 125 g ai/ha, preemergence): 85
Plant response rating, Purple Nutsedge (purple nutsedge; Preemergence, 31 g ai/ha): 35
Plant response rating, Johnsongrass (johnsongrass; 16 g ai/ha, preemergence): 30
Johnsongrass plant response rating (johnsongrass; 62 g ai/ha, Preemergence): 100
Johnsongrass plant response rating (johnsongrass; 125 g ai/ha, preemergence): 100
Plant response rating, Johnsongrass (johnsongrass; Preemergence, 31 g ai/ha): 60
Plant response rating, Dayflower (Virginia dayflower; 16 g ai/ha, preemergence): 60
Dayflower plant response rating (Virginia dayflower; 62 g ai/ha, Preemergence): 98
Dayflower plant response rating (Virginia dayflower; 125 g ai/ha, preemergence): 100
Plant response rating, Dayflower (Virginia dayflower; Preemergence, 31 g ai/ha): 90
Plant response rating, Ryegrass, Italian (Italian ryegrass; 16 g ai/ha, preemergence): 60
Ryegrass, Italian plant response rating (Italian ryegrass; preemergence): 100
Plant response rating, Ryegrass, Italian (Italian ryegrass; Preemergence, 62 g ai/ha): 100
Plant response rating, Ryegrass, Italian (Italian ryegrass; Preemergence, 31 g ai/ha): 100
Plant response rating, Goosegrass (goosegrass; 16 g ai/ha, preemergence): 60
Goosegrass plant response rating (goosegrass; 62 g ai/ha, Preemergence): 98
Goosegrass plant response rating (goosegrass; 125 g ai/ha, preemergence): 100
Plant response rating, Goosegrass (goosegrass; Preemergence, 31 g ai/ha): 95
Plant response rating, Ragweed (common ragweed; 16 g ai/ha, preemergence): 20
Ragweed plant response rating (common ragweed; preemergence): 75
Plant response rating, Ragweed (common ragweed; Preemergence, 62 g ai/ha): 60
Plant response rating, Ragweed (common ragweed; Preemergence, 31 g ai/ha): 40
Plant response rating, Surinam Grass (Surinam grass; 16 g ai/ha, preemergence): 20
Surinam Grass plant response rating (Surinam grass; preemergence): 100
Plant response rating, Surinam Grass (Surinam grass; Preemergence, 31 g ai/ha): 100
Plant response rating, Morningglory (pitted morningglory; 16 g ai/ha, preemergence): 0
Morningglory plant response rating (pitted morningglory; 62 g ai/ha, Preemergence): 98
Morningglory plant response rating (pitted morningglory; 125 g ai/ha, preemergence): 100
Plant response rating, Morningglory (pitted morningglory; Preemergence, 31 g ai/ha): 15
Plant response rating, Signalgrass (broadleaf signalgrass; 16 g ai/ha, preemergence): 15
Signalgrass plant response rating (broadleaf signalgrass; preemergence): 80
Plant response rating, Signalgrass (broadleaf signalgrass; Preemergence, 62 g ai/ha): 75
Plant response rating, Signalgrass (broadleaf signalgrass; Preemergence, 31 g ai/ha): 35
Plant response rating, Bermudagrass (bermudagrass; 16 g ai/ha, preemergence): 40
Bermudagrass plant response rating (bermudagrass; 62 g ai/ha, Preemergence): 70
Bermudagrass plant response rating (bermudagrass; 125 g ai/ha, preemergence): 100
Plant response rating, Bermudagrass (bermudagrass; Preemergence, 31 g ai/ha): 60
Morningglory plant response rating (morningglory; [1]): 100
Plant response rating, Morningglory (morningglory; [2]): 100
Plant response rating, Crabgrass, Naked (naked crabgrass; 16 g ai/ha, preemergence): 75
Crabgrass, Naked plant response rating (naked crabgrass; 62 g ai/ha, Preemergence): 100
Crabgrass, Naked plant response rating (naked crabgrass; 125 g ai/ha, preemergence): 100
Plant response rating, Rice (rice; 31 g ai/ha, scale 0 to 100 (0 no effect, 100 complete control)): 0
Plant response rating, Rice (rice; 62 g ai/ha, scale 0 to 100, 0 no effect, 100 complete control, 13 to 15 days): 0
Plant response rating, Rice (rice; 125 g ai/ha, scale 0 to 100, 0 no effect, 100 complete control, 13 to 15 days): 30
Plant response rating, Rice (rice; [3]): 75
Plant response rating, Kochia (kochia; 16 g ai/ha, preemergence): 0
Kochia plant response rating (kochia; 62 g ai/ha, Preemergence): 70
Kochia plant response rating (kochia; 125 g ai/ha, preemergence): 100
Plant response rating, Kochia (kochia; Preemergence, 31 g ai/ha): 50
Plant response rating, Bluegrass (annual bluegrass; 16 g ai/ha, preemergence): 35
Bluegrass plant response rating (annual bluegrass; 62 g ai/ha, Preemergence): 100
Bluegrass plant response rating (annual bluegrass; 125 g ai/ha, preemergence): 100
Plant response rating, Bluegrass (annual bluegrass; Preemergence, 31 g ai/ha): 65
